# Data reported in patent US20090082354A1, “PYRAZOLO[5, 1-C] [1,2,4] TRIAZINES, METHODS FOR PREPARATION AND USE THEREOF” (Wyeth, priority 2007, published 2009).
# Molecular target: T1, Flag/GST-tagged recombinant human B-Raf (Homo sapiens, UniProt P15056)
# T1 construct: Flag; GST; made in house; host or cells: Sf9 insect cells (B-Raf); E. coli (MEK1-GST)
# Experiment: B-Raf kinase assay (phosphorylation of GST-MEK1, DELFIA readout)
# Type: biochemical
# Settings: B-Raf 0.2 nM, non-active GST-MEK1 2.8 nM, 45 minutes at RT; compound 1 μM to 3 nM or 0.1 uM to 300 pm in half log dilutions
# Protocol: Testing For B-Raf Kinase Inhibitors
# Compounds of Formula A were tested as B-Raf Kinase inhibitors that can inhibit growth of tumor cells which contain oncogenic forms of Receptor Tyrosine Kinases or K-Ras, or B-Raf kinase.
# Reagents: Flag/GST-tagged recombinant human B-Raf produced in Sf9 insect cells, human non-active Mek-1-GST (recombinant protein produced in E. coli); and a phospho-MEK1 specific poly-clonal Ab from Cell Signaling Technology (Cat. #9121).
# B-Raf1 Kinase Assay Procedure: B-Raf-1 is used to phosphorylate GST-MEK1. MEK1 phosphorylation is measured by a phospho-specific antibody (from Cell Signaling Technology, Cat. #9121) that detects phosphorylation of two serine residues at positions 217 and 221 on MEK1.
# The following Kinase Assay Protocol was employed in accordance with the invention:
# B-Raf Assay Stock Solutions:
# 1. Assay Dilution Buffer (ADB): 20 mM MOPS, pH 7.2, 25 mM B-glycerol phosphate, 5 mM EGTA, 1 mM sodium orthovanadate, 1 mM dithiothreitol, 0.01% Triton X-100. 2. Magnesium/ATP Cocktail: ADB solution (minus Triton X-100) plus 200 μM cold ATP and 40 mM magnesium chloride. 3. Active Kinase: Active B-Raf: used at 0.2 nM per assay point. 4. Non-active GST-MEK1: Use at 2.8 nM final concentration). 5. TBST-Tris (50 mM, pH 7.5), NaCl (150 mM), Tween-20 (0.05%)
# 7. Anti pMEK Ab (Upstate) 8. Anti-rabbit Ab/Europium conjugate (Wallac)
# 1. Add 25 μl of ADB containing B-Raf and Mek per assay (i.e. per well of a 96 well plate) 2. Add 25 μl of 0.2 mM ATP and 40 mM magnesium chloride in Magnesuium/ATP Cocktail. 3. Incubate for 45 minutes at RT with occasional shaking. 4. Transfer this mixture to an anti-GST Ab coated 96 well plate (Nunc Immunosorb plates coated o/n with a-GST. Plate freshly washed 3× with TBS-T before use. 5. Incubate o/n at […] in cold room. 6. Wash 3× with TBST, add Anti-Phospho MEK1 (1:1000, dilution depends upon lot) 7. Incubate for 60 minutes at RT in a shaking incubator 8. Wash 3× with TBST, add Anti-rabbit Ab/Europium conjugate (Wallac) (1:500, dilution depends upon lot) 9. Incubate for 60 minutes at RT on a platform shaker. 10. Wash plate 3× with TBS-T 11. Add 100 ul of Wallac Delfia Enhancement Solution and shake for 10 minutes. 12. Read plates in Wallac Victor model Plate Reader. 13. Collect data analyze in Excel for single point and IC50 determinations. Mallon R, et al (2001) Anal. Biochem. 294:48.
# IC50 determinations were performed on compounds of Formula A from single point assays with >80% inhibition. Single point assay—% inhibition at 10 mg/mL (% inhibition=1—sample treated with compound of Formula A/untreated control sample). The % inhibition was determined for each compound concentration. IC50 determinations—Typically the B-Raf assay was run at compound concentrations from 1 μM to 3 nM or 0.1 uM to 300 pm in half log dilutions. Data was analyzed in Excel and transferred to Radis.
# T1 sequence (P15056 whole entry): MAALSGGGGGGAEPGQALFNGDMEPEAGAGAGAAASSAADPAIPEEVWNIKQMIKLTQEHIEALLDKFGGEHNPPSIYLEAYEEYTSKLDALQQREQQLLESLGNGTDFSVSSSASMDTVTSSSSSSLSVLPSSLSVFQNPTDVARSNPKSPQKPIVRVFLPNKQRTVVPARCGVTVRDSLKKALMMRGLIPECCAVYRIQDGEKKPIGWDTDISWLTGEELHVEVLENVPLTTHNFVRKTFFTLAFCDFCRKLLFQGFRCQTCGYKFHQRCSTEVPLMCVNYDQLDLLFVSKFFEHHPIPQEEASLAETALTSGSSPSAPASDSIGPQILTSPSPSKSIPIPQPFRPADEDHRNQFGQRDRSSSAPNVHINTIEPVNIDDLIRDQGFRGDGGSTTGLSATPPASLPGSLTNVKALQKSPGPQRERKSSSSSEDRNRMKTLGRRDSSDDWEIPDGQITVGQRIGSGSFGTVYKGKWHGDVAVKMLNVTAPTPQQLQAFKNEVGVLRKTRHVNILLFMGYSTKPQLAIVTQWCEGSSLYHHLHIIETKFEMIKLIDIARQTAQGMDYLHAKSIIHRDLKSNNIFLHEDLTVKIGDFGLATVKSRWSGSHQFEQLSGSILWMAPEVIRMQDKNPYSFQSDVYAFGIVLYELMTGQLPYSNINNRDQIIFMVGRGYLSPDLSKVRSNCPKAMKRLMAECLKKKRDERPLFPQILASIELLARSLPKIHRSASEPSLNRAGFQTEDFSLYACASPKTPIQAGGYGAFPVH
row,IC50 [nM],SMILES
1,0.3,"CCOC(=O)N1C2CCC1CC(c1cnnc3c(-c4ccc(Cl)c(O)c4)c(-c4ccncc4)nn13)C2 (stereo not shown) [Example 18, Ethyl 3-[8-(4-chloro-3-hydroxyphenyl)-7-pyridin-4-ylpyrazolo[5,1-c][1,2,4]triazin-4-yl]-8-azabicyclo[3.2.1]octane-8-carboxylate]"
2,< 0.3,"CN1CCN(S(=O)(=O)c2cccc(-c3cnnc4c(-c5ccc(Cl)c(O)c5)c(-c5ccncc5)nn34)c2)CC1 [Example 15, 2-Chloro-5-(4-{3-[(4-methylpiperazin-1-yl)sulfonyl]phenyl}-7-pyridin-4-ylpyrazolo[5,1-c][1,2,4]triazin-8-yl)phenol]"
3,< 0.3,"CN1CCCN(c2ccc(-c3cnnc4c(-c5ccc(Cl)c(O)c5)c(-c5ccncc5)nn34)cn2)CC1 [Example 14, 2-Chloro-5-{4-[6-(4-methyl-1,4-diazepan-1-yl)pyridin-3-yl]-7-pyridin-4-ylpyrazolo[5,1-c][1,2,4]triazin-8-yl}phenol]"

# Second part, the compound before the results:
row,SMILES,IC50 [nM]
1,"CN1CCN(c2ccc(-c3cnnc4c(-c5cccc(O)c5)c(-c5ccncc5)nn34)cn2)CC1 [Example 7, 3-{4-[6-(4-Methyl-piperazin-1-yl)-pyridin-3-yl]-7-pyridin-4-yl-pyrazolo[5,1-c][1,2,4]triazin-8-yl}-phenol]",2
2,"CCOC(=O)c1nnc2c(-c3ccc(Cl)c(OC)c3)c(-c3ccncc3)nn2c1C1CC1 [Example 10, Ethyl 8-(4-chloro-3-methoxyphenyl)-4-cyclopropyl-7-pyridin-4-yl pyrazolo[5,1-c][1,2,4]triazine-3-carboxylate]",329
3,"Oc1cccc(-c2c(-c3ccncc3)nn3c(C4CCCCC4)cnnc23)c1 [Example 2, 3-(4-cyclohexyl-7-pyridin-4-yl-pyrazolo[5,1-c][1,2,4]triazin-8-yl)phenol]",18
4,"CN1CCCN(c2ccc(-c3cnnc4c(-c5cccc(O)c5)c(-c5ccncc5)nn34)cn2)CC1 [Example 6, 3-{4-[6-(4-Methyl-[1,4]diazepan-1-yl)-pyridin-3-yl]-7-pyridin-4-yl-pyrazolo[5,1-c][1,2,4]triazin-8yl}-phenol]",2
5,"Oc1cccc(-c2c(-c3ccncc3)nn3c(-c4ccc(Br)nc4)cnnc23)c1 [Example 5, 3-[4-(6-Bromo-pyridin-3-yl)-7-pyridin-4-yl-pyrazolo[5,1-c][1,2,4]triazin-8-yl]-phenol]",91
6,COc1cccc(-c2c(-c3ccncc3)nn3c(C)c(C(=O)N4CCN(C)CC4)nnc23)c1 [Example 3],1000
7,"Cc1c(S(=O)(=O)c2ccccc2)nnc2c(-c3cccc(O)c3)c(-c3ccncc3)nn12 [Example 9, 3-[4-Methyl-3-(phenylsulfonyl)-7-pyridin-4-ylpyrazolo[5,1-c][1,2,4]triazin-8-yl]phenol]",55
